Legend:
[1] = tested on: DNMT3b mRNA; assay: Northern blot of DNMT3b mRNA expression after antisense treatment; assay type: cell-based, human; conditions: A549 cells
Method: (§1) To identify antisense oligodeoxynucleotide (ODN) capable of inhibiting DNMT3a or DNMT3b expression in human cancer cells, antisense oligonucleotides were initially screened in T24 (human blader) A549 (human non small cell lung cancers cells at 100 nM. Cells were harvested after 24 hours of treatment, and DNMT3a or DNMT3b RNA expression was analyzed by Northern blot analysis.
(§2) Active oligonucleotides identified in initial screens were then synthesized with phosporothiate backbone modification and 2′-O-methyl modifications of the sugar on the four 5′ and 3′ nucleotides. […] Human A549 or T24 cells were treated with increasing doses of antisense (AS) oligonucleotide from 0-75 nM for 24 hours.
(§3) Briefly, human A549 or T24 human bladder carcinoma cells were seeded in 10 cm tissue culture dishes one day prior to oligonucleotide treatment. The cell lines were obtained from the American Type Culture Collection (ATCC) (Manassas, Va.) and were grown under the recommended culture conditions. Before the addition of the oligonucleotides, cells were washed with PBS (phosphate buffered saline). Next, lipofectin transfection reagent (GIBCO BRL Mississauga, Ontario, Calif.), at a concentration of 6.25 μg/ml, was added to serum free OPTIMEM medium (GIBCO BRL, Rockville, Md.), which was then added to the cells. The oligonucleotides to be screened were then added directly to the cells (i.e., one oligonucleotide per plate of cells).
Cells were harvested, and total RNAs were analyzed by Northern blot analysis. Briefly, total RNA was extracted using RNeasy miniprep columns (QIAGEN). Ten to twenty μg of total RNA was run on a formaldehyde-containing 1% agarose gel with 0.5 M sodium phosphate (pH 7.0) as the buffer system. RNAs were then transferred to nitrocellulose membranes and hybridized with the radiolabelled DNA probes specific for DNMT3a or DNMT3b messenger RNA. Autoradiography was performed using conventional procedures.

[2] = tested on: DNMT1 mRNA; assay: Northern blot, non target mRNA DNMT1; assay type: cell-based, human; conditions: A549 cells
[3] = tested on: DNMT3a mRNA; assay: Northern blot of DNMT3a mRNA expression after antisense treatment; assay type: cell-based, human; conditions: A549 cells
Method: as §1, §2
as §3, with “The oligonucleotides to be screened were then added directly to the cells (i.e., one oligonucleotide per plate of cells).” left out
Cells were harvested, and total RNAs were analyzed by Northern blot analysis. […]

[4] = tested on: Glyceraldehyde 3′-phosphate dehydrogenase mRNA; assay: Northern blot, non target mRNA Glyceraldehyde 3′-phosphate dehydrogenase; assay type: cell-based, human; conditions: A549 cells
Method: as §2, §3
Cells were harvested, and total RNAs were analyzed by Northern blot analysis. Briefly, total RNA was extracted using RNeasy miniprep columns (QIAGEN). Ten to twenty μg of total RNA was run on a formaldehyde-containing 1% agarose gel with 0.5 M sodium phosphate (pH 7.0) as the buffer system. […]

[5] = tested on: DNMT3b protein; assay: Western blot of DNMT3b protein level; assay type: cell-based, human; conditions: 0-75 nM, 48 hrs
Method: In order to determine whether treatment with DNMT3a or DNMT3b AS-ODNs would inhibit expression at the protein level, antibodies specific for either DNMT3a or DNMT3b were produced for use in western blots. DNMT3b is expressed at sufficiently high levels in human cancer cells to be detected by our DNMT3b antibody. However, DNMT3a is not expressed at detectable levels. Therefore, both human A549 non small cell lung cancer cells and T24 human bladder cancer cells were treated with doses of the DNMT3b antisense inhibitor (SEQ ID NO: 18) ranging from 0-75 nM for 48 hours and then measured DNMT3b protein levels by Western blot.
Briefly, cells were lysed in buffer containing 1% Triton X-100, 0.5% sodium deoxycholate, 5 mM EDTA, 25 mM Tris-HC1, pH 7.5, plus protease inhibitors. Total protein was quantified by the protein assay reagent from Bio-Rad (Hercules, Calif.). 100 ug of total protein was analyzed by SDS-PAGE. Next, total protein was transferred onto a PVDF membrane and probed with DNMT3b specific antibody. Anti-DNMT3b antibody was raised by immunizing rabbits with a GST fusion protein containing a fragment of the DNMT3b protein (amino acids 4-101 of GenBank Accession No. NM_006892). Rabbit antiserum was tested and found only to react specifically to the human DNMT3b isoform. DNMT3b antiserum was used at 1:500 dilution in Western blots to detect DNA MeTase-6 in total cell lysates. Horse Radish Peroxidase conjugated secondary antibody was used at a dilution of 1:5000 to detect primary antibody binding. The secondary antibody binding was visualized by use of the Enhanced chemiluminescence (ECL) detection kit (Amersham-Pharmacia Biotech., Inc., Piscataway, N.J.).

[6] = tested on: A549 human non small cell lung cancer cells; assay: Apoptosis, Cell Death Detection ELISA Plus, A549 cells; assay type: cell-based
Method: (§4) In order to determine the effects of DNMT3a and DNMT3b inhibition on apoptosis of cancer cells, various cancer cell lines (A549 or T24 cells, MDAmb231) were exposed to the DNMT3a and DNMT3b AS-ODN for various periods of time and the effects on apoptosis were determined. For the analysis of apoptosis (active cell death), cells were analyzed using the Cell Death Detection ELISA ^Plus kit (Roche Diagnostic GmBH, Mannheim, Germany) according to the manufacturer's directions. Typically, 10,000 cells were plated in 96-well tissue culture dishes for 2 hours before harvest and lysis. Each sample was analyzed in duplicate. ELISA reading was done using a MR700 plate reader (DYNEX Technology, Ashford, Middlesex, England) at 410 nm. The reference was set at 490 nm.

[7] = tested on: HMEC (human mammary epithelial cells); assay: Apoptosis in normal cells, HMEC; assay type: cell-based; conditions: 75 nM, 48 hrs
Method: as §4
(§5) The effect of DNMT3b inhibition on the induction of apoptosis in normal cells was also determined, the results of which are presented in FIG. 10. HMEC (human mammary epithelial cells, ATCC, Manassas, Va.) and MRHF (foreskin fibroblasts, ATCC, Manassas, Va.) were treated with 75 nM of DNMT3b AS (SEQ ID NO: 18) or its mismatch control SEQ ID NO: 19 for 48 hrs as previously described for human cancer cells.

[8] = tested on: MRHF (foreskin fibroblasts); assay: Apoptosis in normal cells, MRHF; assay type: cell-based, human; conditions: 75 nM, 48 hrs
Method: as §4, §5

SEQ ID NO: 33: DNMT3A AS, 3′UTR (4045), PTI, 5′cgtgagaacgcgccatctgc3′ (antisense CGTGAGAACGCGCCATCTGC; DNA, all phosphorothioate, methylation of C not given here)
expression of DNMT3b mRNA [1]: not effected | expression of non target mRNA DNMT1 [2]: not effected | expression of DNMT3a mRNA [3]: dose dependent effect | expression of non target mRNA Glyceraldehyde 3′-phosphate dehydrogenase [4]: not effected

SEQ ID NO: 18: DNMT3B AS, 3′UTR (3993), PTI, 5′cgtcgtggctccagttacaa3′ (antisense CGTCGTGGCTCCAGTTACAA; DNA, all phosphorothioate, methylation of C not given here)
expression of DNMT3b mRNA [1]: dose dependent inhibition | IC50 ([1]; 0-75 nM, 24 hours, read-out: estimated IC50 value, inhibition of DNMT3b expression): ~25 nM | expression of non target mRNA DNMT1 [2]: not effected | expression of DNMT3a mRNA [3]: not effected | expression of non target mRNA Glyceraldehyde 3′-phosphate dehydrogenase [4]: not effected | level of DNMT3b protein ([5]; A549 human non small cell lung cancer cells): dose dependent effect | level of DNMT3b protein ([5]; A549 human non small cell lung cancer cells, listed as MG3741): inhibits | level of DNMT3b protein ([5]; T24 human bladder cancer cells): dose dependent effect | level of DNMT3b protein ([5]; T24 human bladder cancer cells, listed as MG3741): inhibits | apoptosis [6]: induced apotosis | apoptosis [7]: no apoptosis | apoptosis [8]: no apoptosis
